Laboratory results from patent US10149809B2, “Skin aging inhibitor and concentrate of resveratrol 3-O-α-glucoside” (priority 2014, dated 2018).

Key:
[1] = SOD-like activity (SOD Test Wako kit); type: biochemical
Description: Resveratrol 3-O-α-glucoside was dissolved in a 15% ethanol solution to a concentration of 5, 10, or 20 mmol/L, and the resulting solution was used as a sample solution.
Using the sample solution prepared as above, the SOD-like activity was evaluated using an SOD measurement kit (SOD Test Wako; Wako Pure Chemical Industries, Ltd.).

IL-1β gene = assay: Reduction of inflammation through pretreatment: IL-1β gene expression, Poly I:C; type: cell-based; settings: normal human epidermal keratinocytes, pretreatment 0.001 wt % 24 hours, then Poly I:C 1 μg/mL 9 hours; control = 100%, comparative group 871
Description: Normal human epidermal keratinocytes were seeded into 12-well culture plates at 5×10^4 cells per well. As the medium, EpiLife KG-2 medium (basal medium) supplemented with insulin, hEGF, hydrocortisone, anti-microbial agents, and BPE was used, and the cells were preincubated in 5% CO2 at 37° C. for 48 hours. Further, the cells were incubated for additional 24 hours in a medium obtained by removing hydrocortisone only from the basal medium (assay medium). Next, the medium was replaced with a sample medium obtained by supplementing the assay medium with resveratrol 3-O-α-glucoside to a concentration of 0.001 wt %, the cells were cultured in 5% CO2 at 37° C. for 24 hours, and the cultured cells were pretreated with resveratrol 3-O-α-glucoside. […] After the medium was removed and the cells were washed with PBS, total RNA was extracted from the cells, and the level of expression of the proinflammatory cytokine IL-1β gene was quantified by real time PCR. […]
Taking as 100% the level of expression of the IL-1β gene for the control group, a relative ratio of the expression level of the IL-1β gene for each of the comparative group and the resveratrol 3-O-α-glucoside-supplemented group (IL-1β gene expression ratio, %) was calculated. […]

sirtuin 1 gene = assay: Sirtuin 1 gene expression-promoting effect (1); type: cell-based; settings: normal human epidermal keratinocytes, 0.02 wt %, 72 hours; control = 100%
Description: Normal human epidermal keratinocytes were seeded into 12-well culture plates at 7.5×10^4 cells per well. As the medium, EpiLife KG-2 medium supplemented with insulin, hEGF, hydrocortisone, anti-microbial agents, and BPE was used (basal medium), and the cells were preincubated in 5% CO2 at 37° C. for 72 hours. The medium was removed and then replaced with a sample medium supplemented with resveratrol 3-O-α-glucoside to a concentration of 0.02 wt %, and the cells were cultured in 5% CO2 at 37° C. After 72 hours, total RNA was extracted from the cells, and the level of expression of the sirtuin 1 gene was quantified by real time PCR. As a control group, cells were cultured without resveratrol 3-O-α-glucoside, and total RNA collected from these cells was used.
Taking as 100% the level of expression of the sirtuin 1 gene for the control group, a relative ratio of the expression level of the sirtuin 1 gene for the resveratrol 3-O-α-glucoside-supplemented group (SIRT 1 gene expression ratio, %) was determined. In the measurement of the expression level of the sirtuin 1 gene, PPIA was used for internal standard correction.

[2] = tested on: skin model (EPI-200X; MatTek); type: in vitro ADME, human
Description: Using a three-dimensional human skin model, permeabilities of resveratrol 3-O-α-glucoside and resveratrol into the skin model when administered via the skin surface were compared.
Resveratrol 3-O-α-glucoside or resveratrol (Tokyo Chemical Industry Co., Ltd.) was prepared into a 0.2 wt % solution or suspension with the addition of PBS, and the resulting solution was used as a test substance. The skin model (EPI-200X; MatTek) was loaded into a special fixture (EPI-100-FIX; MatTek), and placed in the 6-well plate of the receiver. One-hundred microliters of the test substance were added to the horny layer side, and 5 mL of PBS was added to the receiver side. After being allowed to stand at 37° C. for 20 hours, the skin model was collected, and the surface of the skin model was washed well with PBS. The skin model after being washed was homogenized in PBS. After the homogenate was centrifuged, resveratrols in the supernatant were quantified using HPLC under the same conditions as described in Production Example 1 above, and the amount of resveratrols was converted into the equivalent of agly cones.

[3] = Storage stability in 30 vol % aqueous ethanol (coloration, residual content); type: physicochemical; settings: 2 mM in 30 vol % aqueous ethanol, 40° C., light-tight, 6 months
Description: Each of resveratrol 3-O-α-glucoside (produced in Production Example 1), resveratrol (Tokyo Chemical Industry Co., Ltd.), and resveratrol 4′-O-α-glucoside (produced in Production Example 1) was dissolved in a 30 vol % aqueous solution of ethanol to a concentration of 2 mM, and the solution was stored at 40° C. under light-tight conditions. The coloration of the solution after being stored for 6 months was visually observed. Further, absorbances at 430 nm of the solution before and after the storage were measured, and the residual amount of each of the components in the solution was analyzed using HPLC. HPLC was performed under the same conditions as those described in Production Example 1.

[4] = Non-Patent Literature 3; cited from earlier work

Row | Structure (SMILES) | SOD-Like Activity (%) ([1]; 5 mmol/L in the sample solution (15% ethanol)) | SOD-Like Activity (%) ([1]; 10 mmol/L in the sample solution (15% ethanol)) | SOD-Like Activity (%) ([1]; 20 mmol/L in the sample solution (15% ethanol)) | IL-1β Gene Expression Ratio (%) (IL-1β gene) | SIRT 1 Gene Expression Ratio (%) (sirtuin 1 gene) | amount of permeation into the skin model relative to resveratrol [2] [times] | Coloration: Difference between Absorbances at 430 nm (Δ A 430) before and after Storage [3] | Coloration: Visual Observation [3] | Residual Content (%) ([3]; HPLC) | water solubility [4] | water solubility relative to that of resveratrol [4]
1 | OC[C@H]1O[C@H](Oc2cc(O)cc(C=Cc3ccc(O)cc3)c2)[C@H](O)[C@@H](O)[C@@H]1O [Resveratrol 3-O-α-Glucoside, resveratrol 3-O-α-glucoside] | 18 | 35 | 47 | 697 | 171 | 3.5 | 0.03 | colorless | 93 |  | 
2 | OC[C@H]1O[C@@H](Oc2cc(O)cc(/C=C/c3ccc(O)cc3)c2)[C@H](O)[C@@H](O)[C@@H]1O [Resveratrol 3-O-β-Glucoside, resveratrol 3-O-β-glucoside] |  |  |  |  |  |  |  |  |  | approximately 400 μg/mL | approximately 10 fold
